The conditions of data set [1]: in vivo; cited from earlier work.
The target in data set [2] is human V2 receptor (h V2R) (Homo sapiens (Human), UniProt P30518). Put plainly: hV2 receptor agonist transcriptional reporter gene (luciferase) assay. The format is cell-based. Particulars: HEK-293 cells transiently transfected with hV2 receptor, dDAVP internal control. A general note: A reporter such as luciferase makes a cellular process visible.

On to “[1-deamino, 8-D-arginine]-vasopressin [Compound 42]”, for which the “route of clearance from the body” value in data set [1] is “cleared from the body primarily by the kidneys”. [Val4]dDAVP [Compound 43]: in data set [2], the “% Efficacy hV2-R” value was found to be 89%.
